Experimental data from PubChem BioAssay (NCI).
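A five-concentration, 48-hour dose response in 96-well plates underlies each endpoint, interpolated linearly between surrounding concentrations. GI50 = concentration required for 50% inhibition of growth. TGI marks complete inhibition of growth.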

Experiments:
Experiment in all cases: NCI-60 cell line screen, 48 h
BT-549 breast = test system: BT-549 breast
SF-539 CNS = test system: SF-539 CNS
IGROV1 ovarian = test system: IGROV1 ovarian
NCI-H522 lung = test system: NCI-H522 lung
UO-31 renal = test system: UO-31 renal
UACC-257 melanoma = test system: UACC-257 melanoma
SW-620 colon = test system: SW-620 colon
HL-60(TB) leukemia = test system: HL-60(TB) leukemia
SF-295 CNS = test system: SF-295 CNS
OVCAR-5 ovarian = test system: OVCAR-5 ovarian
T-47D breast = test system: T-47D breast
HOP-92 NSCLC = test system: HOP-92 NSCLC
K-562 leukemia = test system: K-562 leukemia
A549 NSCLC = test system: A549 NSCLC
SNB-19 CNS = test system: SNB-19 CNS
TK-10 renal = test system: TK-10 renal
MCF7 breast = test system: MCF7 breast
CCRF-CEM leukemia = test system: CCRF-CEM leukemia
LOX IMVI melanoma = test system: LOX IMVI melanoma
HS 578T breast = test system: HS 578T breast
HOP-62 NSCLC = test system: HOP-62 NSCLC
HT29 colon = test system: HT29 colon
SNB-75 CNS = test system: SNB-75 CNS
SR leukemia = test system: SR leukemia
OVCAR-3 ovarian = test system: OVCAR-3 ovarian
RPMI-8226 leukemia = test system: RPMI-8226 leukemia
EKVX NSCLC = test system: EKVX NSCLC
ACHN renal = test system: ACHN renal
NCI-H460 lung = test system: NCI-H460 lung
MOLT-4 leukemia = test system: MOLT-4 leukemia
MDA-MB-231 breast = test system: MDA-MB-231 breast
SK-MEL-5 melanoma = test system: SK-MEL-5 melanoma
DU-145 prostate = test system: DU-145 prostate
SK-OV-3 ovarian = test system: SK-OV-3 ovarian
OVCAR-4 ovarian = test system: OVCAR-4 ovarian
U251 CNS = test system: U251 CNS
COLO 205 colon = test system: COLO 205 colon
MDA-MB-435 = test system: MDA-MB-435
UACC-62 melanoma = test system: UACC-62 melanoma
786-0 renal = test system: 786-0 renal
NCI/ADR-RES ovarian = test system: NCI/ADR-RES ovarian
RXF 393 renal = test system: RXF 393 renal
HCC-2998 colon = test system: HCC-2998 colon
A498 renal = test system: A498 renal
M14 melanoma = test system: M14 melanoma
HCT-116 colon = test system: HCT-116 colon
PC-3 prostate = test system: PC-3 prostate
CAKI-1 renal = test system: CAKI-1 renal
OVCAR-8 ovarian = test system: OVCAR-8 ovarian
SN12C renal = test system: SN12C renal
SK-MEL-28 melanoma = test system: SK-MEL-28 melanoma
MALME-3M melanoma = test system: MALME-3M melanoma
SF-268 CNS = test system: SF-268 CNS
SK-MEL-2 melanoma = test system: SK-MEL-2 melanoma
NCI-H226 lung = test system: NCI-H226 lung
HCT-15 colon = test system: HCT-15 colon
KM12 colon = test system: KM12 colon
NCI-H23 lung = test system: NCI-H23 lung

## COC(C(=O)[C@@H](O)[C@@H](C)O)[C@@H]1Cc2cc3cc(O[C@H]4C[C@@H](O[C@H]5C[C@@H](O)[C@H](O)C(C)O5)[C@H](O)C(C)O4)c(C)c(O)c3c(O)c2C(=O)[C@H]1O[C@H]1C[C@@H](O[C@H]2C[C@@H](O[C@H]3C[C@@H](O)[C@H](OC)C(C)O3)[C@@H](O)C(C)O2)[C@H](O)C(C)O1 (stereo partly drawn)
BT-549 breast
  GI50: 0.0219 µM
  TGI: 0.258 µM
SF-539 CNS
  GI50: 0.0142 µM
  TGI: 0.101 µM
IGROV1 ovarian
  GI50: 0.0239 µM
  TGI: > 33.3 µM
NCI-H522 lung
  GI50: 0.0101 µM
  TGI: 0.0569 µM
UO-31 renal
  GI50: 0.0953 µM
  TGI: 0.934 µM
UACC-257 melanoma
  GI50: 0.013 µM
  TGI: 0.101 µM
SW-620 colon
  GI50: 0.0197 µM
  TGI: > 33.3 µM
HL-60(TB) leukemia
  GI50: 0.0651 µM
  TGI: 0.767 µM
SF-295 CNS
  GI50: 0.0141 µM
  TGI: > 33.3 µM
OVCAR-5 ovarian
  TGI: > 33.3 µM
T-47D breast
  GI50: 0.0139 µM
  TGI: 0.237 µM
HOP-92 NSCLC
  GI50: 0.0122 µM
  TGI: 1.27 µM
K-562 leukemia
  GI50: 0.0224 µM
  TGI: > 33.3 µM
A549 NSCLC
  TGI: > 33.3 µM
SNB-19 CNS
  TGI: > 33.3 µM
TK-10 renal
  TGI: 0.322 µM
MCF7 breast
  GI50: 0.00728 µM
  TGI: > 33.3 µM
CCRF-CEM leukemia
  GI50: 0.0425 µM
  TGI: > 13.1 µM
LOX IMVI melanoma
  GI50: 0.00894 µM
  TGI: 0.0289 µM
HS 578T breast
  GI50: 0.019 µM
  TGI: > 33.3 µM
HOP-62 NSCLC
  GI50: 0.0151 µM
  TGI: 0.717 µM
HT29 colon
  TGI: 0.131 µM
SNB-75 CNS
  TGI: 0.23 µM
SR leukemia
  TGI: > 33.3 µM
OVCAR-3 ovarian
  GI50: 0.0212 µM
  TGI: 1.04 µM
RPMI-8226 leukemia
  GI50: 0.0141 µM
  TGI: 7.13 µM
EKVX NSCLC
  TGI: > 33.3 µM
ACHN renal
  GI50: 0.0831 µM
  TGI: > 33.3 µM
NCI-H460 lung
  GI50: 0.0132 µM
  TGI: > 33.3 µM
MOLT-4 leukemia
  GI50: 0.0231 µM
  TGI: 0.219 µM
MDA-MB-231 breast
  GI50: 0.0691 µM
  TGI: > 33.3 µM
SK-MEL-5 melanoma
  GI50: 0.00955 µM
  TGI: 0.0444 µM
DU-145 prostate
  GI50: 0.0188 µM
  TGI: > 33.3 µM
SK-OV-3 ovarian
  TGI: > 33.3 µM
OVCAR-4 ovarian
  GI50: 0.049 µM
  TGI: > 26.5 µM
U251 CNS
  TGI: > 33.3 µM
COLO 205 colon
  GI50: 0.0145 µM
  TGI: 0.0521 µM
MDA-MB-435
  GI50: 0.0219 µM
  TGI: 0.197 µM
UACC-62 melanoma
  GI50: 0.00659 µM
  TGI: 0.0217 µM
786-0 renal
  GI50: 0.0313 µM
  TGI: > 26.9 µM
NCI/ADR-RES ovarian
  GI50: 6.93 µM
  TGI: > 33.3 µM
RXF 393 renal
  GI50: 0.034 µM
  TGI: 0.139 µM
HCC-2998 colon
  GI50: 0.0293 µM
  TGI: 0.114 µM
A498 renal
  GI50: 0.00614 µM
  TGI: 0.0224 µM
M14 melanoma
  GI50: 0.0372 µM
  TGI: 0.349 µM
HCT-116 colon
  GI50: 0.0112 µM
  TGI: > 33.3 µM
PC-3 prostate
  GI50: 0.0317 µM
  TGI: > 33.3 µM
CAKI-1 renal
  GI50: 0.601 µM
  TGI: > 33.3 µM
OVCAR-8 ovarian
  GI50: 0.0286 µM
  TGI: > 33.3 µM
SN12C renal
  TGI: > 33.3 µM
SK-MEL-28 melanoma
  GI50: 0.00946 µM
  TGI: 0.0647 µM
MALME-3M melanoma
  GI50: 0.011 µM
  TGI: 0.088 µM
SF-268 CNS
  GI50: 0.0307 µM
  TGI: > 33.3 µM
SK-MEL-2 melanoma
  TGI: 0.0392 µM
NCI-H226 lung
  GI50: 0.0209 µM
  TGI: > 33.3 µM
HCT-15 colon
  GI50: 0.272 µM
  TGI: > 33.3 µM
KM12 colon
  TGI: > 33.3 µM
NCI-H23 lung
  GI50: 0.0184 µM
  TGI: 0.234 µM

## NC(=S)N/N=C/c1cc(-c2cccc(N)c2)ccn1
BT-549 breast
  GI50: 3.52 µM
  TGI: > 100 µM
SF-539 CNS
  GI50: 0.675 µM
  TGI: 6.17 µM
IGROV1 ovarian
  GI50: 3.05 µM
  TGI: > 24.5 µM
NCI-H522 lung
  GI50: 0.202 µM
  TGI: 0.564 µM
UO-31 renal
  GI50: 0.907 µM
  TGI: 8.69 µM
UACC-257 melanoma
  GI50: 2.15 µM
  TGI: > 28.6 µM
SW-620 colon
  GI50: 3.45 µM
  TGI: > 81.8 µM
HL-60(TB) leukemia
  GI50: 0.281 µM
SF-295 CNS
  GI50: 1.66 µM
  TGI: 31 µM
OVCAR-5 ovarian
  GI50: 3.96 µM
  TGI: > 100 µM
T-47D breast
  GI50: 1.34 µM
  TGI: > 100 µM
HOP-92 NSCLC
  GI50: 0.314 µM
  TGI: 40 µM
K-562 leukemia
  GI50: 0.541 µM
  TGI: > 100 µM
A549 NSCLC
  GI50: 3.11 µM
  TGI: > 51.3 µM
SNB-19 CNS
  GI50: 4.24 µM
  TGI: > 100 µM
TK-10 renal
  GI50: 1.2 µM
  TGI: 44 µM
MCF7 breast
  GI50: 2 µM
  TGI: > 44.8 µM
CCRF-CEM leukemia
  GI50: 0.674 µM
  TGI: > 36.1 µM
LOX IMVI melanoma
  GI50: 2.09 µM
  TGI: 34.6 µM
HS 578T breast
  GI50: 0.585 µM
  TGI: > 57.4 µM
HOP-62 NSCLC
  GI50: 2.44 µM
  TGI: > 36.9 µM
HT29 colon
  GI50: 3.72 µM
  TGI: > 100 µM
SNB-75 CNS
  GI50: 2.15 µM
  TGI: > 100 µM
SR leukemia
  GI50: 0.346 µM
  TGI: > 27.9 µM
OVCAR-3 ovarian
  GI50: 1.67 µM
  TGI: 23.2 µM
RPMI-8226 leukemia
  GI50: 0.446 µM
  TGI: 28.7 µM
EKVX NSCLC
  GI50: 2.6 µM
  TGI: > 100 µM
ACHN renal
  GI50: 1.06 µM
  TGI: 16.1 µM
NCI-H460 lung
  GI50: 1.07 µM
  TGI: 7.27 µM
MOLT-4 leukemia
  GI50: 0.588 µM
  TGI: > 100 µM
MDA-MB-231 breast
  GI50: 3.6 µM
  TGI: > 100 µM
SK-MEL-5 melanoma
  GI50: 1.69 µM
  TGI: 7.26 µM
DU-145 prostate
  GI50: 1.25 µM
  TGI: 12 µM
SK-OV-3 ovarian
  GI50: 3.29 µM
  TGI: > 93.8 µM
OVCAR-4 ovarian
  GI50: 2.66 µM
  TGI: > 100 µM
U251 CNS
  GI50: 0.783 µM
  TGI: > 38.8 µM
COLO 205 colon
  GI50: 3.41 µM
  TGI: > 100 µM
MDA-MB-435
  GI50: 3.2 µM
  TGI: > 100 µM
UACC-62 melanoma
  GI50: 1.38 µM
  TGI: > 24.5 µM
786-0 renal
  GI50: 1.29 µM
  TGI: 6.34 µM
NCI/ADR-RES ovarian
  GI50: 2.68 µM
  TGI: > 100 µM
RXF 393 renal
  GI50: 2.32 µM
  TGI: 42.4 µM
HCC-2998 colon
  GI50: 2.2 µM
  TGI: > 43.5 µM
A498 renal
  GI50: 1.61 µM
  TGI: 19.1 µM
M14 melanoma
  GI50: 1.49 µM
  TGI: 4.21 µM
HCT-116 colon
  GI50: 1.99 µM
  TGI: 27.3 µM
PC-3 prostate
  GI50: 1.07 µM
  TGI: > 100 µM
CAKI-1 renal
  GI50: 0.972 µM
  TGI: 10.3 µM
OVCAR-8 ovarian
  GI50: 1.66 µM
  TGI: > 67.9 µM
SN12C renal
  GI50: 2.52 µM
  TGI: > 100 µM
SK-MEL-28 melanoma
  GI50: 4.35 µM
  TGI: > 100 µM
MALME-3M melanoma
  GI50: 1.31 µM
  TGI: 24 µM
SF-268 CNS
  GI50: 1.02 µM
  TGI: > 70.7 µM
SK-MEL-2 melanoma
  GI50: 3.6 µM
  TGI: 43.8 µM
NCI-H226 lung
  GI50: 1.73 µM
  TGI: 8.18 µM
HCT-15 colon
  GI50: 2.71 µM
  TGI: > 100 µM
KM12 colon
  GI50: 1.11 µM
  TGI: > 41.2 µM
NCI-H23 lung
  GI50: 1.91 µM
  TGI: > 100 µM
